Values of other authors, collected in patent US20220218740A1, “OPIOID-FREE COMPOSITIONS FOR ANESTHESIOLOGICAL APPLICATIONS AND RELATED METHODS AND SYSTEMS” (Vaporworks Nursing Anesthesia Inc., priority 2020, published 2022).
Read-outs that look alike come from different tables or passages of the source. Values belong to the molecule of their own block, whether it stands above or below them.

How the values were obtained:
[1] = infusion continued post-surgically
[2] = not given; remark: listed apart in the source

Structure (SMILES): C[C@@H]1C[C@H]2[C@@H]3CCC4=CC(=O)C=C[C@]4(C)[C@@]3(F)[C@@H](O)C[C@]2(C)[C@@]1(O)C(=O)COP(=O)(O)O [Dexamethasone, Dexamethasone Sodium phosphate]
onset time (in vivo): two | time until peak effect (in vivo): at least 1 hour

Structure (SMILES): Cc1cccc([C@H](C)c2cnc[nH]2)c1C [Dexmedetomidine]
peek effect (IV): 15 min

Structure (SMILES): CCN(CC)CC(=O)Nc1c(C)cccc1C [Lidocaine]
Peak serum levels occur after medication administration [1]: serum levels occur 24 hours

More lines, now with the values ahead:

Duration ([2]; in vivo): > 20 min | Peak ([2]; in vivo): 2 to 6 min | Onset ([2]; in words): Immediate
Structure (SMILES): COC(=O)CCc1ccc(OCC(O)CNC(C)C)cc1 (stereo not shown) [esmolol]

Duration ([2]; in vivo): up to 4 hours | Onset ([2]; in vivo): 2 to 5 min | Peak ([2]; in vivo): 5 to 15 min
Structure (SMILES): CC(CCc1ccccc1)NCC(O)c1ccc(O)c(C(N)=O)c1 (stereo not shown) [labetalol]
